Test results as given in paper PMC10463376, “Design, synthesis, in vitro anticancer, molecular docking and SAR studies of new series of pyrrolo[2,3-d]pyrimidine derivatives” (BMC Chemistry, 2023).
≈ marks a conversion by molar mass, not a printed value.

Tests used:
HePG2 liver cancer cells = assay: MTT assay, HePG2; settings: Homo sapiens, HepG2, 72 h; for IC50: read-out: IC50 HePG2; for cytotoxicity at 100 µg/mL: read-out: MTT cell proliferation mortality assay (%) HePG2
Text: (§1) All of the following steps were done in a sterile Laminar flow class II biosafety cabinet (Baker, SG406INT, Sanford, ME, USA). DMEM was used as a suspension medium for breast cancer (MCF7), colorectal cancer (HCT116), prostate cancer (PC3), liver cancer (HePG2), pancreatic cancer (PACA2) and lung cancer (A549), while normal cell line (BJ1) was suspended in DMEM-F12 medium. The selected cell lines were purchased from American Type Culture Collection (ATCC). The media were supplemented with a 1% antimycotic-antibiotic mixture (10,000 µg/ml streptomycin sulfate, 25 µg/ml Amphotericin B, and 10,000 U/ml Potassium Penicillin) and 1% L-glutamine. 10 × 10^4cells/well were seeded in 96 well microtiter plates and incubated for 24 h at 37 ℃ under 5% carbon dioxide using a water-jacketed Carbon dioxide incubator (Sheldon, SCO5A, OR, USA). […] After the incubation time of 72 h, the medium was removed. Afterward, 40 µl MTT salt ([…]) was added to each well and kept for 4 h under the same conditions of 37 °C and 5% carbon dioxide. Finally, 200 μl of 10% Sodium dodecyl sulfate (SDS) in deionized water was added to each well and incubated overnight at 37 °C. The step of SDS addition was done to stop the reaction and dissolve the formed formazan crystals. The absorbance was then measured at a wavelength of 595 nm and the reference wavelength was set at 620 nm using a microplate multi-well reader (Bio-Rad Laboratories Inc., model 3356, California, USA). […] A statistical significance analysis was determined between the samples and the negative control using an independent t-test by SPSS 11 program. Dimethyl sulfoxide (DMSO) was the vehicle that dissolved our synthesized compounds and its concentration in the cells was less than 0.2%. IC50 values were calculated using the GraphPad Prism 6 program. The degree of selectivity of the synthetic compounds was expressed as SI = IC50 of a pure compound in a normal cell line/IC50 of the same pure compound in the cancer cell line, where IC50 is the concentration of the compound required to kill 50% of the cells.

MCF7 breast cancer cells = assay: MTT assay, MCF7; settings: for cytotoxicity at 100 µg/mL / IC50: Homo sapiens, MCF7, 72 h; for cytotoxicity at 100 µg/mL / cytotoxicity: read-out: MTT cell proliferation mortality assay (%) MCF7; for IC50: read-out: IC50 MCF7; for cytotoxicity: at 100 μg/ml, 72 h
Text: as §1

[1] = system: HCT116 colorectal cancer cells; assay: MTT assay, HCT116; settings: for IC50 / cytotoxicity at 100 µg/mL: Homo sapiens, HCT-116, 72 h; for IC50: read-out: IC50 HCT116; for cytotoxicity at 100 µg/mL: read-out: MTT cell proliferation mortality assay (%) HCT116, at 100 μg/ml, 72 h; for cytotoxicity: read-out: MTT cell proliferation mortality assay (%) HCT116, at 100 μg/ml, 72 h
Text: as §1

A549 lung cancer cells = assay: MTT assay, A549; settings: for cytotoxicity at 100 µg/mL: read-out: MTT cell proliferation mortality assay (%) A549, at 100 μg/ml, 72 h
Text: as §1

[2] = system: PACA2 pancreatic cancer cells; assay: MTT assay, PACA2; settings: Homo sapiens, PaCa-2, 72 h; for cytotoxicity at 100 µg/mL: read-out: MTT cell proliferation mortality assay (%) PACA2; for IC50: read-out: IC50 PACA2
Text: as §1

[3] = system: PC3 prostate cancer cells; assay: MTT assay, PC3; settings: Homo sapiens, 72 h; for cytotoxicity at 100 µg/mL: read-out: MTT cell proliferation mortality assay (%) PC3, at 100 μg/ml, 72 h; for IC50: read-out: IC50 PC3
Text: as §1

[4] = MTT assay, normal cell line BJ1; assay type: cell-based; settings: human, at 100 μg/ml, read-out: MTT cell proliferation mortality assay (%) BJ1
Text: as §1

| SMILES | IC50 (HePG2 liver cancer cells) | cytotoxicity at 100 µg/mL (HePG2 liver cancer cells) | cytotoxicity at 100 µg/mL (MCF7 breast cancer cells) | IC50 [1] | cytotoxicity at 100 µg/mL [1] | cytotoxicity [1] | cytotoxicity at 100 µg/mL (A549 lung cancer cells; Homo sapiens, A549, 72 h) | cytotoxicity at 100 µg/mL [2] | cytotoxicity at 100 µg/mL [3] | cytotoxicity at 72 h, 100 μg/ml [4] | IC50 [2] | IC50 (MCF7 breast cancer cells) | IC50 (A549 lung cancer cells; Homo sapiens, A549, 72 h, read-out: IC50 A549) | cytotoxicity (A549 lung cancer cells; read-out: MTT cell proliferation mortality assay (%) A549, at 100 μg/ml, 72 h) | IC50 [3] | cytotoxicity (MCF7 breast cancer cells) |
| --- | --- | --- | --- | --- | --- | --- | --- | --- | --- | --- | --- | --- | --- | --- | --- | --- |
| O=c1[nH]cnc2c1c(-c1ccc(Br)cc1)cn2-c1ccc(Cl)cc1Cl [Compound 3a, 5-(4-bromophenyl)-7-(2,4-dichlorophenyl)-3,7-dihydro-4H-pyrrolo[2,3-d]pyrimidin-4-one] | 19.2 ± 0.6 µg/mL (≈ 44.1 µM) | 100% | 63.5 ± 2.6% | 44.5 ± 1.3 µg/mL (≈ 102 µM) | 80 to 90% | 84.3 ± 1.1% | 3.4 ± 0.2% | 71.3 ± 0.8% | 36.5 ± 0.9% | 95.3 ± 1.8% |  |  |  |  |  |  |
| COc1ccc(-c2cn(-c3ccc(Cl)cc3Cl)c3nc[nH]c(=O)c23)cc1OC [Compound 3b, 7-(2,4-dichlorophenyl)-5-(3,4-dimethoxyphenyl)-3,7-dihydro-4H-pyrrolo[2,3-d]pyrimidin-4-one] |  | 10.4 ± 1.7% | 11.5 ± 0.8% |  | 14.6 ± 0.1% |  | 8.5 ± 0.6% | 76.3 ± 1.8% | 15.6 ± 1.3% | 3.5 ± 0.9% | 69.7 ± 1.3 µg/mL (≈ 167 µM) |  |  |  |  |  |
| Clc1ccc(-n2c(Cl)c(-c3ccc(Br)cc3)c3c(Cl)ncnc32)c(Cl)c1 [Compound 4a, 5-(4-bromophenyl)-4,6-dichloro-7-(2,4-dichlorophenyl)-7H-pyrrolo[2,3-d]pyrimidine] |  | 43.5 ± 2.2% | 100% |  | 74.2 ± 2.5% |  | 80 to 90% | 100% | 53 ± 0.7% | 74.6 ± 0.6% | 24.1 ± 1 µg/mL (≈ 49.4 µM) | 32.4 ± 0.8 µg/mL (≈ 66.4 µM) | 68.9 ± 0.5 µg/mL (≈ 141 µM) | 79.4 ± 1.6% |  |  |
| Clc1ccc(-n2cc(-c3ccc(Br)cc3)c3c(Cl)ncnc32)c(Cl)c1 [Compound 5, 5-(4-bromophenyl)-4-chloro-7-(2,4-dichlorophenyl)-7H-pyrrolo[2,3-d]pyrimidine] |  | 34.5 ± 2.9% | 27.9 ± 1.2% |  | 60.4 ± 0.9% |  | 25.1 ± 0.7% | 29.3 ± 0.8% | 42.3 ± 1.3% | 16.3 ± 2% |  |  |  |  |  |  |
| Cc1nc2c(c(-c3ccc(Br)cc3)cn2-c2ccc(Cl)cc2Cl)c(=O)[nH]1 [Compound 6, 5-(4-bromophenyl)-7-(2,4-dichlorophenyl)-2-methyl-3,7-dihydro-4H-pyrrolo[2,3-d]pyrimidin-4-one] |  |  | 100% | 31.2 ± 0.9 µg/mL (≈ 69.5 µM) | 100% |  |  | 100% | 100% | 84.9 ± 0.7% | 40 ± 1 µg/mL (≈ 89.1 µM) | 15.2 ± 0.9 µg/mL (≈ 33.8 µM) |  |  | 31.1 ± 0.9 µg/mL (≈ 69.2 µM) |  |
| Clc1ccc(-n2c(Cl)c(-c3ccc(Br)cc3)c3c(Cl)nc(C(Cl)(Cl)Cl)nc32)c(Cl)c1 [Compound 7, 5-(4-bromophenyl)-4,6-dichloro-7-(2,4-dichlorophenyl)-2-(trichloromethyl)-7H-pyrrolo[2,3-d]pyrimidine] |  |  | 100% |  | 100% |  | 14.2 ± 0.8% | 100% | 54.2 ± 1.6% | 100% |  | 16.2 ± 1.6 µg/mL (≈ 26.8 µM) |  |  |  |  |
| COc1nc(C(Cl)(Cl)Cl)nc2c1c(-c1ccc(Br)cc1)c(Cl)n2-c1ccc(Cl)cc1Cl [Compound 8, 5-(4-bromophenyl)-6-chloro-7-(2,4-dichlorophenyl)-4-methoxy-2-(trichloromethyl)-7H-pyrrolo[2,3-d]pyrimidine] | 17.8 ± 1.3 µg/mL (≈ 29.6 µM) | 100% | 84.3 ± 2.5% | 68.1 ± 1 µg/mL (≈ 113 µM) | 80 to 90% | 80 ± 1% | 19.3 ± 1.2% | 100% | 13.5 ± 1.5% | 15.6 ± 2.8% | 23.5 ± 0.6 µg/mL (≈ 39.1 µM) | 48 ± 1.5 µg/mL (≈ 79.9 µM) |  |  |  | 80 to 95% |
| COc1ncnc2c1c(-c1ccc(Br)cc1)c(Cl)n2-c1ccc(Cl)cc1Cl [Compound 9a, 5-(4-bromophenyl)-6-chloro-7-(2,4-dichlorophenyl)-4-methoxy-7H-pyrrolo[2,3-d]pyrimidine] |  |  | 75.2 ± 3.6% |  | 52.1 ± 0.8% |  | 58.6 ± 1.3% | 1.3 ± 0.2% | 53.8 ± 0.3% | 37.8 ± 0.6% |  |  |  |  |  |  |
| COc1ccc(-c2c(Cl)n(-c3ccc(Cl)cc3Cl)c3ncnc(OC)c23)cc1OC [Compound 9b, 6-chloro-7-(2,4-dichlorophenyl)-5-(3,4-dimethoxyphenyl)-4-methoxy-7H-pyrrolo[2,3-d]pyrimidine] |  | 63.8 ± 0.6% | 100% |  | 45.6 ± 3.2% |  |  | 2.5 ± 0.3% |  |  |  |  |  |  |  |  |
| Clc1ccc(-n2c(Cl)c(-c3ccc(Br)cc3)c3c(N4CCCC4)nc(C(Cl)(Cl)Cl)nc32)c(Cl)c1 [Compound 10, 5-(4-bromophenyl)-6-chloro-7-(2,4-dichlorophenyl)-4-(pyrrolidin-1-yl)-2-(trichloromethyl)-7H-pyrrolo[2,3-d]pyrimidine] |  |  | 100% | 26.9 ± 0.6 µg/mL (≈ 42 µM) | 100% |  | 10.2 ± 0.5% | 100% | 100% | 100% |  | 61.1 ± 1.4 µg/mL (≈ 95.5 µM) |  |  | 11.6 ± 0.8 µg/mL (≈ 18.1 µM) |  |
| Clc1ccc(-n2c(Cl)c(-c3ccc(Br)cc3)c3c(N4CCCC4)ncnc32)c(Cl)c1 [Compound 11a, 5-(4-bromophenyl)-6-chloro-7-(2,4-dichlorophenyl)-4-(pyrrolidin-1-yl)-7H-pyrrolo[2,3-d]pyrimidine] |  | 7.2 ± 1.3% | 65.2 ± 1% |  | 44.2 ± 0.8% |  | 11.8 ± 0.6% | 84.3 ± 1.7% | 12.5 ± 1.4% | 47.3 ± 1.3% | 55.4 ± 1.4 µg/mL (≈ 106 µM) |  |  |  |  |  |
| COc1ccc(-c2c(Cl)n(-c3ccc(Cl)cc3Cl)c3ncnc(N4CCCC4)c23)cc1OC [Compound 11b, 6-chloro-7-(2,4-dichlorophenyl)-5-(3,4-dimethoxyphenyl)-4-(pyrrolidin-1-yl)-7H-pyrrolo[2,3-d]pyrimidine] |  | 63.1 ± 0.5% | 80.4 ± 1.8% |  | 33.5 ± 0.4% |  | 11.6 ± 0.9% | 25.6 ± 0.9% | 94.6 ± 1.3% | 56.9 ± 0.1% |  | 48.4 ± 0.8 µg/mL (≈ 96.1 µM) |  |  | 27.7 ± 0.1 µg/mL (≈ 55 µM) | 80 to 95% |
| S=c1[nH]cnc2c1c(-c1ccc(Br)cc1)c(Cl)n2-c1ccc(Cl)cc1Cl [Compound 12, 5-(4-bromophenyl)-6-chloro-7-(2,4-dichlorophenyl)-3,7-dihydro-4H-pyrrolo[2,3-d]pyrimidine-4-thione] |  | 26.3 ± 3.4% | 100% |  | 64.3 ± 1.1% |  | 71.3 ± 1.6% | 81.5 ± 1.2% | 3.1 ± 0.2% | 100% | 59.7 ± 0.7 µg/mL (≈ 123 µM) | 11.9 ± 0.9 µg/mL (≈ 24.5 µM) |  |  |  |  |
| CSc1ncnc2c1c(-c1ccc(Br)cc1)c(Cl)n2-c1ccc(Cl)cc1Cl [Compound 13, 5-(4-bromophenyl)-6-chloro-7-(2,4-dichlorophenyl)-4-(methylthio)-7H-pyrrolo[2,3-d]pyrimidine] |  | 12.4 ± 1.9% | 3.5 ± 0.6% |  | 60.2 ± 1% |  | 42.6 ± 1.2% | 58.8 ± 1.2% | 32.2 ± 1.7% | 25.3 ± 0.4% |  |  |  |  |  |  |
